Measurements: patent US7348344B2, “Polysubstituted 1,1-pyridyloxycyclopropanamine compounds” (Les Laboratoires Servier, priority 2005, dated 2008)

Key:
NMRI mouse = assay: Abdominal contractions induced by phenyl-p-benzoquinone (PBQ) in the NMRI mouse; assay type: in vivo; conditions: 10 mg/kg IP
Method: Intraperitoneal administration of an alcoholic solution of PBQ causes abdominal cramps in the mouse (Proc. Soc. Exp. Biol., 1957, 95, 729-731). The cramps are characterised by repeated contractions of the abdominal musculature, accompanied by extension of the hind limbs. Most analgesics antagonise these abdominal cramps (Brit. J. Pharmacol. Chem., 1968, 32, 295-310). At t=0 min., the animals are weighed and the compound being studied is administered by the IP route. A group of control animals is given the solvent used for the compound. At t=30 min., an alcoholic solution of PBQ (0.2%) is administered by the IP route in a volume of 0.25 ml/mouse. Immediately after administration of the PBQ, the animals are placed in cylinders of plexiglass (L=19.5 cm; I.D.=5 cm). From t=35 min. to t=45 min., the animals' reaction is observed and the experimenter notes the total number of abdominal cramps per animal. The results are expressed as the percentage inhibition of the number of abdominal cramps measured in the control animals, at the active dose of the compound studied.

[1] = target: T1, type α4β2 central nicotinic receptors (Rattus norvegicus, UniProt P09483+P12390); assay: Displacement of binding of [3H]-cytisine on type α4β2 nicotinic receptors of rat brain; conditions: rat brain membranes
T1 construct: from tissue; host or cells: rat brain membranes
Method: This study, carried out according to the technique described in Molec. Pharmacol., 1990, 39; 9-12, is aimed at determining the affinity of compounds of the present invention for type α4β2 central nicotinic receptors.
Membranes (250 μg/ml) of rat brain are incubated (2 hours, 20° C.) in the presence of a series of concentrations (0.01-10 μM) of each compound of the present invention (diluted starting from a 10 mM stock solution in DMSO) and [^3H]-cytisine (S.A.: 1184 GBq/mmol: 2 nM) in phosphate buffer (NaH2PO4 20 mM, pH 7.4); final volume: 250 μl. The non-specific binding is determined by incubating membranes in the presence of 10 μM of (−)nicotine. The affinity of the compounds of the present invention for type α4β2 central nicotinic receptors is characterised by determination of the Ki.

[2] = system: release of acetylcholine in the prefrontal cortex; assay: In vivo measurement of the release of acetylcholine by intra-cortical microdialysis in the conscious Wistar rat; design: dose or concentration left out as unconfirmed; conditions: one hour after administration
Method: The systemic administration of nicotine and nicotinic agonists causes an increase, in vivo, of acetylcholine in various regions of the brain (Neurochem. Res., 1996, 21, 1181-1186; Eur. J. Pharmacol., 1998, 351, 181-188; Br. J. Pharmacol., 1999, 127, 1486-1494). A microdialysis probe is implanted in the median prefrontal cortex of male Wistar rats. Six or seven days after they have been implanted, the probes are perfused with Ringer's solution (NaCl 147 mM, KCl 2.7 mM, CaCl2 1.2 mM, MgCl2 1 mM, neostigmine 20 nM) at a flow rate of 1 μl/min, the animal being free to move. After 2 hours in the animal quarters, the product under test is administered by the intraperitoneal route. A group of control animals receives the solvent used for the product. The dialysates (30 μl) are then collected every 30 minutes for 4 hours in order to measure the cortical extra-synaptic concentrations of acetylcholine by means of HPLC with amperometric detection. The results are expressed in pg of acetylcholine/dialysate, and inter-group comparisons are carried out by means of analysis of variance using 2 factors (treatment×time), with measurements being repeated over time.

Wistar rat = assay: Social recognition in the Wistar rat; assay type: in vivo; conditions: 10 mg/kg IP, second encounter after 2 hours
Text: Initially described in 1982 (J. Comp. Physiol., 1982, 96, 1000-1006), the social recognition test has subsequently been proposed by various authors (Psychopharmacology, 1987, 91, 363-368; Psychopharmacology, 1989, 97, 262-268) for studying the mnemocognitive effects of new compounds. The test is based on the natural expression of the olfactory memory of the rat and its natural tendency to forget and allows evaluation of memorisation, by recognition of a young congeneric animal, by an adult rat. A young rat (21 days), taken at random, is placed for 5 minutes in the cage housing an adult rat. With the aid of a video device, the experimenter observes the social recognition behaviour of the adult rat and measures its overall duration. The young rat is then removed from the adult rat's cage and is placed in its own cage until the second introduction. The adult rat is given the compound under test by the intraperitoneal route and, after 2 hours, is again brought into the presence (5 minutes) of the young rat. The social recognition behaviour is then observed again and its duration measured. The assessment criterion is the difference (T2−T1), expressed in seconds, between the “recognition” times of the 2 encounters.

T1 sequence (P09483 31-630): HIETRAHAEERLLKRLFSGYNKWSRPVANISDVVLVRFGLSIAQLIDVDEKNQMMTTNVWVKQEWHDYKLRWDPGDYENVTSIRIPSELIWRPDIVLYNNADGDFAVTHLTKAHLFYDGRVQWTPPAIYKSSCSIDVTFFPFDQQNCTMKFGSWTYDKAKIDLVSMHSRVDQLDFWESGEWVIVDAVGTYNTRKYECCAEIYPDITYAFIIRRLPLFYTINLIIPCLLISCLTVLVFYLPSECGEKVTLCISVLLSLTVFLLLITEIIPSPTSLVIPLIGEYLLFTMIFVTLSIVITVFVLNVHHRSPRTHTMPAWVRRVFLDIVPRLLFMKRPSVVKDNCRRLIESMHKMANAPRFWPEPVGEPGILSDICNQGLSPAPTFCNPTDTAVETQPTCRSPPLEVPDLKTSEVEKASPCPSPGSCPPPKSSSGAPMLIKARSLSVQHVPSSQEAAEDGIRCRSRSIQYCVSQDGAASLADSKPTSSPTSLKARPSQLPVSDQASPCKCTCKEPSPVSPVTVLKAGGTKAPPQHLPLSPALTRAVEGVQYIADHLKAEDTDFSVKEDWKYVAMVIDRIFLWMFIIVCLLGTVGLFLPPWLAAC
T1 sequence (P12390 25-500): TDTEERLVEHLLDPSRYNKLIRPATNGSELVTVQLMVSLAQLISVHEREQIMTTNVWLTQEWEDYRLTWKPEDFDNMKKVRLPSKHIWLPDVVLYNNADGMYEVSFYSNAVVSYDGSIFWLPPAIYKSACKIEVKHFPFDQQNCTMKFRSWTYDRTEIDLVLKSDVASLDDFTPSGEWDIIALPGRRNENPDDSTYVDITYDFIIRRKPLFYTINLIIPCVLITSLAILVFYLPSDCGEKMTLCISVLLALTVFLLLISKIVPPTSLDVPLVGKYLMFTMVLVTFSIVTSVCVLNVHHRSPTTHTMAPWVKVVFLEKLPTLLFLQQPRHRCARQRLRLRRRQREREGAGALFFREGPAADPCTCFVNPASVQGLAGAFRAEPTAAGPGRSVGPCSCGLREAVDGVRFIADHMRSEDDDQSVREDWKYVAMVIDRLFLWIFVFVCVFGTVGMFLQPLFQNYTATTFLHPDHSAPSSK

Row | Structure (SMILES) | melting point [°C] | other results
1 | C[C@H]1C[C@@]1(N)COc1ccc(Cl)nc1.Cl (single isomer, unassigned) [Example 15, (1S,2S)- or (1R,2R)-(+)-1-{[(6-chloro-3-pyridinyl)oxy]methyl}-2-methylcyclopropanamine Hydrochloride] |  | reduction of the number of abdominal cramps caused by PBQ (NMRI mouse): −69%
2 | CN[C@@]1(COc2ccc(Cl)nc2)C[C@@H]1C.Cl (single isomer, unassigned) [11] | 185 to 190 | 
3 | CN[C@@]1(COc2cccnc2)C[C@H]1C.Cl.Cl (single isomer, unassigned) [20] | 69 to 72 | 
4 | C[C@H]1C[C@@]1(N)COc1ccc(Cl)nc1.Cl (single isomer, unassigned) | 183 to 186 | 
5 | C[C@H]1C[C@@]1(N)COc1cccnc1.Cl.Cl (single isomer, unassigned) | < 75 | 
6 | CN[C@@]1(COc2cccnc2)C[C@@H]1C.Cl.Cl (single isomer, unassigned) [Example 2, (1S,2S)- or (1R,2R)-(−)-N,2-dimethyl-1-[(3-pyridinyloxy)methyl]cyclopropanamine Dihydrochloride] | 174 to 176 | Ki [1]: 69 nM; increase in the release of acetylcholine in the prefrontal cortex [2]: +86%; difference (T2−T1) between recognition times (Wistar rat): 38 s
7 | CNC1(COc2cccnc2)CC1(C)C.O=C(O)/C=C/C(=O)O.O=C(O)/C=C/C(=O)O (single isomer, unassigned) [26] | 124 to 127 | 
8 | C[C@H]1C[C@]1(COc1ccc(Cl)nc1)N(C)C.Cl (single isomer, unassigned) | 136 to 138 | 
9 | CN[C@@]1(COc2ccc(Cl)nc2)C[C@@H]1C.Cl (single isomer, unassigned) [12] | 188 to 192 | 
10 | CNC1(COc2cccnc2)CC1(C)C.O=C(O)/C=C/C(=O)O.O=C(O)/C=C/C(=O)O (single isomer, unassigned) [Example 27] | 115 to 118 | 
11 | CN[C@@]1(COc2cccnc2)C[C@H]1C.Cl.Cl (single isomer, unassigned) [21] | 71 to 74 | 
